This passage reports EC50 results from patent US7960380B2, “Non-anilinic derivatives of isothiazol-3(2H)-one 1,1-dioxides as liver X receptor modulators” (AstraZeneca AB, priority 2005, dated 2011).

The EC50 is the concentration at which the effect is half-maximal.

The target in test [1] is T1, human LXRalpha ligand binding domain (GAL4 fusion) (Homo sapiens, UniProt Q13133).
T1 construct: human LXRalpha (amino acid 205-447); expressed in transfected cells; host or cells: U2/OS osteosarcoma cells (electroporated with pSGGAL-LXRalpha)
T1 sequence (Q13133 205-447): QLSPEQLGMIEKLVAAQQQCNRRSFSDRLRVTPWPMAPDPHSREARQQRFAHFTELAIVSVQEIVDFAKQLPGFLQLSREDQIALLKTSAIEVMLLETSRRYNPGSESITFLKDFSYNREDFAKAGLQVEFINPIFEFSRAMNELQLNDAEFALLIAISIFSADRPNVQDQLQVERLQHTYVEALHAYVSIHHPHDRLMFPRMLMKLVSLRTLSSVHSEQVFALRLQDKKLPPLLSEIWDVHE
Briefly: Transactivation (reporter gene) assay in U2/OS cells (LXRalpha). It is filed as cell-based. The following applies: LXRα, GAL4-LXR LBD luciferase reporter. How it is done:
Expression vectors were prepared by inserting the ligand binding domain cDNA (complementary DNA) of human LXRalpha (amino acid 205-447) and LXRbeta (amino acid 216-461) in frame with, 3′ to the yeast GAL4 transcription factor DNA binding domain and the nuclear localization signal from the T-antigen of Polyoma Virus in the eucaryotic expression vector pSG5 (Stratagene). The resulting expression vectors pSGGAL-LXRalpha and pSGGAL-LXRbeta were used in cotransfection experiments together with the pGL3 luciferase reporter plasmid containing a minimal SV40 promoter (Promega) and five copies of the UAS GAL4 recognition site. 2.5 μg pSGGAL-LXRalpha or beta were mixed with 25 μg pGL3 5×UAS and 22.5 μg pBluscript (Stratagene) in 0.95 mL ice cold PBS containing approx. 4-9 milj. U2/OS osteosarcoma cells. After a five minute incubation on ice the cell/DNA mixture was electroporated in 0.4 cm cuvettes at 960 μF, 230 V using a BioRad electroporator and diluted to 0.32 milj cells/mL in complete DMEM [Dulbecco's Modified Eagle Medium w/o phenol red, (Gibco 11880-028) including 10% FBS (Foetal Bovine Serum), 1% PEST (Penicillin Streptomycin), 20 mM Hepes, 2 mM L-Glutamine and 0.36% Glucose Gibco 31966-021] medium. […] Luciferase activity was measured as Luminescence in the Wallac Victor reader after 15 min. incubation at room temperature. […]
(In general: A reporter such as luciferase makes a cellular process visible.)

In test [2] the target is T2, human LXRalpha Ligand Binding Domain (amino acid 205-447) (Homo sapiens, UniProt Q13133).
T2 construct: human LXRalpha (amino acid 205-447); made in house; host or cells: E. coli
T2 sequence (Q13133 205-447): T1 sequence (Q13133 205-447)
Briefly: Co-activator recruitment assay (LXRalpha). It is filed as biochemical. Conditions: LXRα; SRC-1 peptide recruitment, time-resolved fluorescence; read-out: EC50 for LXRα in the coactivator recruitment assay. From the text: The Ligand Binding Domain (LBD) of human LXRalpha (amino acid 205-447) and LXRbeta (amino acid 216-461) was produced by recombinant techniques in E coli. A fragment of the human Steroid Receptor Co-Activator-1 (SRC-1) was produced as a synthetic peptide. An anti-6×His-antibody coupled with Europium (Eu^3+) was used to recognize the His-tag on the LXR-LBD and Allophycocyanin (APC) coupled to streptavidin was used to recognize the biotinylated SRC-1. Agonist binding to LXRalpha or LXRbeta enhances the affinity of LXR towards SRC-1 and thereby brings Eu^3+ and APC in close proximity. Eu^3+ is excited at 337 nm and emitts light at 620 nm. This emission, when in close proximity, excites APC to emit light at 665 nm.
Compounds (10 mM) in DMSO were diluted (1/3) in DMSO in 10 concentrations. This dilution plates were further diluted in buffer {20 mM [Tris(hydroxymethyl)aminomethane] pH 7.5, 0.125% CHAPS {3-[(3-Cholamidopropyl)dimethylammonio]-1-propanesulfonate}, 2 mM DTT (Dithiothreitol) and 0.05% BSA (Bovine Serum Albumin)} in order to reduce DMSO concentration, 0.5 μl to 13.5 μl. To this, 6 μl assay mix was added, giving an maximal assay concentration of 83 μM, and the plates (384-well V-groove plates) were incubated at room temperature for 60 to 80 min. […] Time-resolved fluorescence readings were done in a Wallac Victor reader at 665 nm followed by reading at 615 nm. […]

SMILES strings stand for the structures.

In test [1], `O=C1C(NCCCCc2ccccc2)=C(c2ccccc2)S(=O)(=O)N1C1CCCC1` [Example 2, 2-Cyclopentyl-5-phenyl-4-[(4-phenylbutyl)amino]isothiazol-3(2H)-one 1,1-dioxide] displayed an EC50 of 1360 nM.

`CC(C)N1C(=O)C(NC2CCN(CCC#N)CC2)=C(c2ccccc2)S1(=O)=O` [Example 10, 3-{4-[(2-Isopropyl-1,1-dioxido-3-oxo-5-phenyl-2,3-dihydroisothiazol-4-yl)amino]piperidin-1-yl}propanenitrile]: the EC50 in test [2] was determined as 1420 nM. `CCCCN1C(=O)C(NCCCOc2cccc(NC(C)=O)c2)=C(c2ccccc2)S1(=O)=O` [Example 7, N-(3-{3-[(2-Butyl-1,1-dioxido-3-oxo-5-phenyl-2,3-dihydroisothiazol-4-yl)amino]propoxy}phenyl)acetamide] gave an EC50 in test [1] of 270 nM. For `CCCCCCNC1=C(c2ccccc2)S(=O)(=O)N(CCCC)C1=O` [Example 6, 2-Butyl-4-(hexylamino)-5-phenylisothiazol-3(2H)-one 1,1-dioxide], the EC50 in test [2] turned out to be 580 nM.
